Data reported in the supplement of paper PMC11208160.

assay: recombinant UMI read abundance after kanamycin selection (control-corrected) (log10(CPM+1)); higher = more efficient recombination; extreme values may be limits of the assay; sequences stand for … in AGTGCAGAGAAAATCGGCCAGTTTTCTCTGCCTGCAGTCCGCATGCCGTGGGACCCCTTGGGTTCTAACCTGTTGCCTAGATTTATGCAGCGGACTGCCTTTCTCCCAAAGTGATAAACCGG…AGGTTGGTTTCACT; site = the 11-nt donor
Method in brief: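 In Escherichia coli, a pool of donor and donor-binding-loop pairs, each with a 12-nt UMI, was tested for the IS621 bridge recombinase. Plating was on IPTG (0.07 mM) plus kanamycin, or without selection, in two replicates. Recombinant UMIs were amplified by PCR across the donor–target junction and sequenced, and counts were reported as log10(CPM+1) after averaging and control-derived scaling.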
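Note: IS621 bridge recombinase in Escherichia coli cells against a fixed T5 target plasmid.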

Sequence | recombinant UMI read abundance (log10)
GAAAAGTCATGGACCGGTTTTCCCGGTAATCCGTATTTGAA (site GAAAAGTCTTT) | 2.84
TGCCGTACATGGACCGGTTTTCCCGGTAATCCGTATTTGCT (site GGCCGTACTAG) | 0
TGGCTGCCATGGACCGGTTTTCCCGGTAATCCGTATTTGGT (site TGGCTGCCTAC) | 0.0264
TAAAGTCCATGGACCGGTTTTCCCGGTAATCCGTATTTGTG (site TAAAGTCCTAA) | 0.00597
TACTTCACATGGACCGGTTTTCCCGGTAATCCGTATTTGCT (site TACTTCACTAG) | 1.9
CGTGGATCATGGACCGGTTTTCCCGGTAATCCGTATTTGTT (site CGTGGACCTAA) | 0.0255
TTCGCTACATGGACCGGTTTTCCCGGTAATCCGTATTTGGC (site TTCGCTACTGC) | 0
GATCAGACATGGACCGGTTTTCCCGGTAATCCGTATTTGAA (site GATCAGACTTT) | 0.431
GGTCCAGCATGGACCGGTTTTCCCGGTAATCCGTATTTGTA (site GGTCCATCTTA) | 0.0161
CCGTTAGCATGGACCGGTTTTCCCGGTAATCCGTATTTGTG (site CCCTTAGCTCA) | 0.0161
CGCCCATCATGGACCGGTTTTCCCGGTAATCCGTATTTGCT (site CGATCATCTAG) | 0.57
CCCACATCATGGACCGGTTTTCCCGGTAATCCGTATTTGTC (site CCCAAATCTGA) | 0
CCTACTGCATGGACCGGTTTTCCCGGTAATCCGTATTTGCC (site GCTACTGCTGG) | 0
TGGACTACATGGACCGGTTTTCCCGGTAATCCGTATTTGAC (site GGGACTACTGT) | 0
CGAGTATCATGGACCGGTTTTCCCGGTAATCCGTATTTGGC (site CGAGTATCTGC) | 3.08
TCCAGTGCATGGACCGGTTTTCCCGGTAATCCGTATTTGGT (site TCCAGTGCTAC) | 0.00561
AAGCTAGCATGGACCGGTTTTCCCGGTAATCCGTATTTGAA (site GAGCTAGCTTT) | 0.00246
AGCAATACATGGACCGGTTTTCCCGGTAATCCGTATTTGCA (site AGGAAGACTTG) | 0
CAGAATACATGGACCGGTTTTCCCGGTAATCCGTATTTGCA (site AAGAATACTTG) | 0.616
GTCGTTCCATGGACCGGTTTTCCCGGTAATCCGTATTTGGT (site GTGGTTCCTAC) | 0.0048
AGGAGGCCATGGACCGGTTTTCCCGGTAATCCGTATTTGAG (site AGGAGGCCTCT) | 0.233
GTGGAGGCATGGACCGGTTTTCCCGGTAATCCGTATTTGGG (site GTGGAGGCTCG) | 0.597
CGACCATCATGGACCGGTTTTCCCGGTAATCCGTATTTGCT (site CGATCATCTAG) | 0
GCGATAACATGGACCGGTTTTCCCGGTAATCCGTATTTGCT (site GCGATAACTAG) | 2.43
GTTCGAACATGGACCGGTTTTCCCGGTAATCCGTATTTGCA (site GTTCGAACTTG) | 0.418

Sequence | recombinant UMI read abundance (log10)
CTCCCTACATGGACCGGTTTTCCCGGTAATCCGTATTTGAG (site CTGCCTACTCT) | 0.0259
GCGAAAACATGGACCGGTTTTCCCGGTAATCCGTATTTGCT (site CCGAAAACTAG) | 0
GTCGTTCCATGGACCGGTTTTCCCGGTAATCCGTATTTGGT (site GTAGTTCCTAC) | 0
AGGATCTCATGGACCGGTTTTCCCGGTAATCCGTATTTGTG (site AGGATCTCTCA) | 2.92
AGGAAGACATGGACCGGTTTTCCCGGTAATCCGTATTTGCA (site CGGAAGACTTG) | 0.801
TAGCTAGCATGGACCGGTTTTCCCGGTAATCCGTATTTGAA (site GAGCTAGCTTT) | 0
GATTAGACATGGACCGGTTTTCCCGGTAATCCGTATTTGAC (site GATTCGACTGT) | 0
CTAGCGCCATGGACCGGTTTTCCCGGTAATCCGTATTTGTG (site CTAGCGCCTCA) | 0.446
CTCCCTGCATGGACCGGTTTTCCCGGTAATCCGTATTTGAG (site CTCCCTGCTCT) | 1.16
CGGGAGTCATGGACCGGTTTTCCCGGTAATCCGTATTTGCT (site CGGGAGTCTAG) | 2.6
CACTTGGCATGGACCGGTTTTCCCGGTAATCCGTATTTGGA (site CGCTTGGCTTC) | 0.439
TAGCCTACATGGACCGGTTTTCCCGGTAATCCGTATTTGGT (site TAGCCTTCTAC) | 0.0222
TACCTCTCATGGACCGGTTTTCCCGGTAATCCGTATTTGAC (site TACCTCTCTGT) | 0.216
TCTGCTACATGGACCGGTTTTCCCGGTAATCCGTATTTGGT (site TCTGCTACTAC) | 0.0161
GGATCGACATGGACCGGTTTTCCCGGTAATCCGTATTTGCC (site GGATAGACTGG) | 1.48
GGGCATGCATGGACCGGTTTTCCCGGTAATCCGTATTTGAA (site GGGCATGCTTT) | 1.59
CCGTTTGCATGGACCGGTTTTCCCGGTAATCCGTATTTGCT (site CCGTTTACTAG) | 0
GAATGGCCATGGACCGGTTTTCCCGGTAATCCGTATTTGCT (site GAATGGCCTAG) | 0.0235
CCCTTCTCATGGACCGGTTTTCCCGGTAATCCGTATTTGGA (site CCCTTCTCTAC) | 0
TACGGCGCATGGACCGGTTTTCCCGGTAATCCGTATTTGCC (site TACGGCGCTGG) | 2.01
CACTTGCCATGGACCGGTTTTCCCGGTAATCCGTATTTGGA (site CACTTGTCTTC) | 0.137
AGCTTAGCATGGACCGGTTTTCCCGGTAATCCGTATTTGGG (site AGCTGAGCTCC) | 0.034
AACCGTCCATGGACCGGTTTTCCCGGTAATCCGTATTTGAA (site AACCGTCCTGT) | 0
ATGCAGGCATGGACCGGTTTTCCCGGTAATCCGTATTTGGC (site ATGGAGGCTGC) | 0
AGGAAGACATGGACCGGTTTTCCCGGTAATCCGTATTTGCA (site AGGTACACTTG) | 1.06

Sequence | recombinant UMI read abundance (log10)
GGTACGTCATGGACCGGTTTTCCCGGTAATCCGTATTTGTT (site GGTGCGTCTAA) | 0.00982
AGGTTACCATGGACCGGTTTTCCCGGTAATCCGTATTTGTG (site AGGTTACCTCA) | 0.0116
GGATGGCCATGGACCGGTTTTCCCGGTAATCCGTATTTGCA (site GTATGGCCTTG) | 0
GGATTGACATGGACCGGTTTTCCCGGTAATCCGTATTTGTT (site GGATTGACTAA) | 0.888
TGCTATTCATGGACCGGTTTTCCCGGTAATCCGTATTTGTA (site TGCTATTCTTA) | 1.33
GTAGGAACATGGACCGGTTTTCCCGGTAATCCGTATTTGAC (site GTAGGGACTGT) | 2.24
GCAGATTCATGGACCGGTTTTCCCGGTAATCCGTATTTGTT (site GTAGATTCTAA) | 0.308
ACATGATCATGGACCGGTTTTCCCGGTAATCCGTATTTGCA (site ACATGATCTTG) | 2.74
ACTAGTGCATGGACCGGTTTTCCCGGTAATCCGTATTTGGT (site ACTAGTGCTAA) | 0.00318
CACGGGCCATGGACCGGTTTTCCCGGTAATCCGTATTTGTT (site CACGGTCCTAA) | 0.00819
CGTTCGGCATGGACCGGTTTTCCCGGTAATCCGTATTTGCT (site CGTTAGGCTAG) | 0.00568
GATTAAACATGGACCGGTTTTCCCGGTAATCCGTATTTGCG (site GATTAAACTCG) | 0.992
CTCCCTACATGGACCGGTTTTCCCGGTAATCCGTATTTGAG (site CTCCCAACTCT) | 0.00701
ATAACGCCATGGACCGGTTTTCCCGGTAATCCGTATTTGAC (site ATAACGCCTGT) | 0.696
GACCGGGCATGGACCGGTTTTCCCGGTAATCCGTATTTGCG (site GACCGGGCTCG) | 0
GGATAGTCATGGACCGGTTTTCCCGGTAATCCGTATTTGCC (site GGATAGTCTGG) | 2.79
TCTAGGTCATGGACCGGTTTTCCCGGTAATCCGTATTTGTT (site TCTAGGTCTAA) | 0
CGGCATCCATGGACCGGTTTTCCCGGTAATCCGTATTTGTT (site CGGTATCCTAA) | 0.0136
ATAACAACATGGACCGGTTTTCCCGGTAATCCGTATTTGAA (site ATAACAACTTT) | 1.46
GTGGGTACATGGACCGGTTTTCCCGGTAATCCGTATTTGTG (site GTGGGTACTCA) | 1.46
CTGCTCCCATGGACCGGTTTTCCCGGTAATCCGTATTTGCT (site CTGCTGCCTAG) | 0
GCCAAGCCATGGACCGGTTTTCCCGGTAATCCGTATTTGGG (site GCAAAGCCTCC) | 0.00342
ACAGTTGCATGGACCGGTTTTCCCGGTAATCCGTATTTGCA (site ACAGTTGCTTG) | 1.81
GCCGGCTCATGGACCGGTTTTCCCGGTAATCCGTATTTGGA (site GCCGGCTCTTC) | 0.632
TGGGTATCATGGACCGGTTTTCCCGGTAATCCGTATTTGCA (site TGGGTATCTTG) | 1.83
